Data published in PMC10077450 (ACS Omega, 2023).
Entries after “also recorded” stand apart in the source; their conditions may differ. Marks after values point to notes of the source that are not given here.

How the values were obtained:
[1] = molecular target: butyryl cholinesterase (BChE) (Homo sapiens, UniProt P06276); assay: butyryl cholinesterase inhibition assay; assay type: biochemical; conditions: for inhibition at 500 µM: read-out: BChE inhibition (%) at 0.5 mM; for activity against BChE enzyme (in words): compared with eserine
[2] = molecular target: α-glucosidase (Saccharomyces cerevisiae, UniProt P53341); conditions: for activity against α-glucosidase enzyme (in words): compared with acarbose
α-glucosidase, sequence (P53341 whole entry): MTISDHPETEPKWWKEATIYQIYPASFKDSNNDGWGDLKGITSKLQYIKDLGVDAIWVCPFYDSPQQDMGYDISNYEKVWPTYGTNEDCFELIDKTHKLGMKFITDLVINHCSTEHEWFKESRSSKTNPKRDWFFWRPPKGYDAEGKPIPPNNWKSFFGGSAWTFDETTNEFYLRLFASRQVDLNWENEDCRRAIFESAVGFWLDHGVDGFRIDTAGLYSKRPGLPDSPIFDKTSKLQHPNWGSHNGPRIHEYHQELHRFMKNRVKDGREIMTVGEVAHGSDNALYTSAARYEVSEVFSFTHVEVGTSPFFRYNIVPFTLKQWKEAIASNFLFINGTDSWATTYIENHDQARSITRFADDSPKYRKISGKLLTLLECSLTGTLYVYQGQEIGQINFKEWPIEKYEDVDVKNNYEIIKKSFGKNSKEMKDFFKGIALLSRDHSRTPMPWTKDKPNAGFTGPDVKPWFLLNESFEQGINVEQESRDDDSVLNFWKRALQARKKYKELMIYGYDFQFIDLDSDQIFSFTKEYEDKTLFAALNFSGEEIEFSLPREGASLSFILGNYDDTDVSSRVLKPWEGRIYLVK

butyryl cholinesterase (BChE), sequence (P06276 29-602, species assumed): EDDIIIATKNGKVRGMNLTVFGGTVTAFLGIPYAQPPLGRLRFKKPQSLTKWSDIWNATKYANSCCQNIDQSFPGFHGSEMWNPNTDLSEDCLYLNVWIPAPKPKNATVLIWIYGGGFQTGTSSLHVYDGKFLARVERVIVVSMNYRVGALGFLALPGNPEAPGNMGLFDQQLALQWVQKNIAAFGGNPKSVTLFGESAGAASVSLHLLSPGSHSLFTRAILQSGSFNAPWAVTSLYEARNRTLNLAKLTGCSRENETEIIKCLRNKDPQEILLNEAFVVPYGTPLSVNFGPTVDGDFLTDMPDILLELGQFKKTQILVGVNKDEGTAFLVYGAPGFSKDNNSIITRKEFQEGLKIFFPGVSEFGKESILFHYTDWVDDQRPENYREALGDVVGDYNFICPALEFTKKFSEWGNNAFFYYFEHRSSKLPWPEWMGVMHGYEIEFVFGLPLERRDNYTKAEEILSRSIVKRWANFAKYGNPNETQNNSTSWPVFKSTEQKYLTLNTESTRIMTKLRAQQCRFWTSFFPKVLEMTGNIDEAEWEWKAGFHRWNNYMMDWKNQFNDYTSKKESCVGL

α-glucosidase inhibition (%) at 0.5 mM ([2]; 0.5 mM, mean ± SEM, triplicate) | Compound | inhibition at 500 µM [1] [%] | IC50 [1] [µM] | activity against BChE enzyme (in words) [1] | activity against α-glucosidase enzyme (in words) [2]
 | CCc1cccc(C)c1NC(=O)CSc1nnc(C2CCCN(S(=O)(=O)c3ccccc3)C2)o1 (stereo not shown) [7o, N-(2-Ethyl-6-methylphenyl)-2-{5-[1-(phenylsulfonyl)piperidin-3-yl]-1,3,4-oxadiazol-2-ylthio}acetamide] | 38.31 ± 0.29 |  |  | 
 | Cc1ccc(NC(=O)CSc2nnc(C3CCCN(S(=O)(=O)c4ccccc4)C3)o2)c(C)c1 (stereo not shown) [7b, N-(2,4-Dimethylphenyl)-2-{5-[1-(phenylsulfonyl)piperidin-3-yl]-1,3,4-oxadiazol-2-ylthio}acetamide] | 76.51 ± 0.44 | 283.3 ± 0.17 | least active; also recorded: BChE inhibitors | 
 | CCc1ccccc1NC(=O)CSc1nnc(C2CCCN(S(=O)(=O)c3ccccc3)C2)o1 (stereo not shown) [7k, N-(2-Ethylphenyl)-2-{5-[1-(phenylsulfonyl)piperidin-3-yl]-1,3,4-oxadiazol-2-ylthio}acetamide] | 44.24 ± 0.32 |  |  | least activity
 | Cc1cccc(NC(=O)CSc2nnc(C3CCCN(S(=O)(=O)c4ccccc4)C3)o2)c1C (stereo not shown) [7a, N-(2,3-Dimethylphenyl)-2-{5-[1-(phenylsulfonyl)piperidin-3-yl]-1,3,4-oxadiazol-2-ylthio}acetamide] | 75.32 ± 0.35 | 284.5 ± 0.13 | least active; also recorded: BChE inhibitors | 
 | O=C(CSc1nnc(C2CCCN(S(=O)(=O)c3ccccc3)C2)o1)NCc1ccccc1 (stereo not shown) [7r, N-Benzyl-2-{5-[1-(phenylsulfonyl)piperidin-3-yl]-1,3,4-oxadiazol-2-ylthio}acetamide] | 37.7 ± 0.48 |  |  | least activity
 | Cc1ccc(C)c(NC(=O)CSc2nnc(C3CCCN(S(=O)(=O)c4ccccc4)C3)o2)c1 (stereo not shown) [7c, N-(2,5-Dimethylphenyl)-2-{5-[1-(phenylsulfonyl)piperidin-3-yl]-1,3,4-oxadiazol-2-ylthio}acetamide] | 40.76 ± 0.27 |  |  | 
 | Cc1ccccc1NC(=O)CSc1nnc(C2CCCN(S(=O)(=O)c3ccccc3)C2)o1 (stereo not shown) [7f, 2-{5-[1-(Phenylsulfonyl)piperidin-3-yl]-1,3,4-oxadiazol-2-ylthio}-N-o-tolylacetamide] | 47.23 ± 0.14 |  |  | 
 | COC(=O)c1ccccc1NC(=O)CSc1nnc(C2CCCN(S(=O)(=O)c3ccccc3)C2)o1 (stereo not shown) [7h, Methyl 2-(2-(5-(1-(Phenylsulfonyl)piperidin-3-yl)-1,3,4-oxadiazol-2-ylthio)acetamido)benzoate] | 35.52 ± 0.23 |  |  | 
 | O=C(CSc1nnc(C2CCCN(S(=O)(=O)c3ccccc3)C2)o1)NCCc1ccccc1 (stereo not shown) [7j, N-Phenethyl-2-{5-[1-(phenylsulfonyl)piperidin-3-yl]-1,3,4-oxadiazol-2-ylthio}acetamide] | 97.93 ± 0.38 | 12.15 ± 0.09 | highest inhibition potential; also recorded: most active | 
 | O=C(CSc1nnc(C2CCCN(S(=O)(=O)c3ccccc3)C2)o1)NC1CCCCC1 (stereo not shown) [7p, N-Cyclohexyl-2-{5-[1-(phenylsulfonyl)piperidin-3-yl]-1,3,4-oxadiazol-2-ylthio}acetamide] | 26.5 ± 0.39 |  |  | least activity
 | COc1ccc(Cl)cc1NC(=O)CSc1nnc(C2CCCN(S(=O)(=O)c3ccccc3)C2)o1 (stereo not shown) [7i, N-(5-Chloro-2-methoxyphenyl)-2-{5-[1-(phenylsulfonyl)piperidin-3-yl]-1,3,4-oxadiazol-2-ylthio}acetamide] | 38.81 ± 0.17 |  |  | second most active
 | CCOc1ccccc1NC(=O)CSc1nnc(C2CCCN(S(=O)(=O)c3ccccc3)C2)o1 (stereo not shown) [7n, N-(2-Ethoxyphenyl)-2-{5-[1-(phenylsulfonyl)piperidin-3-yl]-1,3,4-oxadiazol-2-ylthio}acetamide] | 43.72 ± 0.15 |  |  | 
 | Cc1cc(C)cc(NC(=O)CSc2nnc(C3CCCN(S(=O)(=O)c4ccccc4)C3)o2)c1 (stereo not shown) [7e, N-(3,5-Dimethylphenyl)-2-{5-[1-(phenylsulfonyl)piperidin-3-yl]-1,3,4-oxadiazol-2-ylthio}acetamide] | 66.82 ± 0.32 | 375.4 ± 0.12 | least active; also recorded: BChE inhibitors | most active; also recorded: comparable activity to that of reference
 | Cc1cccc(C)c1NC(=O)CSc1nnc(C2CCCN(S(=O)(=O)c3ccccc3)C2)o1 (stereo not shown) [7d, N-(2,6-Dimethylphenyl)-2-{5-[1-(phenylsulfonyl)piperidin-3-yl]-1,3,4-oxadiazol-2-ylthio}acetamide] | 48.51 ± 0.15 |  |  | least activity
 | Cc1ccc(NC(=O)CSc2nnc(C3CCCN(S(=O)(=O)c4ccccc4)C3)o2)cc1 (stereo not shown) [7g, 2-{5-[1-(Phenylsulfonyl)piperidin-3-yl]-1,3,4-oxadiazol-2-ylthio}-N-p-tolylacetamide] | 46.75 ± 0.18 |  |  | 
 | Cc1cccc([N+](=O)[O-])c1NC(=O)CSc1nnc(C2CCCN(S(=O)(=O)c3ccccc3)C2)o1 (stereo not shown) [7s, N-(2-Methyl-6-nitrophenyl)-2-{5-[1-(phenylsulfonyl)piperidin-3-yl]-1,3,4-oxadiazol-2-ylthio}acetamide] | 67.19 ± 0.39 | 123.3 ± 0.15 | moderately high inhibition potential | 
92.23±0.14^a % | C[C@H]1O[C@H](O[C@H]2[C@H](O)[C@@H](O)[C@@H](O[C@H]3[C@H](O)[C@@H](O)C(O)O[C@@H]3CO)O[C@@H]2CO)[C@H](O)[C@@H](O)[C@@H]1N[C@H]1C=C(CO)[C@@H](O)[C@H](O)[C@H]1O (stereo partly shown) [acarbose, reference compound] |  |  |  | 
 | COc1ccccc1NC(=O)CSc1nnc(C2CCCN(S(=O)(=O)c3ccccc3)C2)o1 (stereo not shown) [7q, N-(2-Methoxyphenyl)-2-{5-[1-(phenylsulfonyl)piperidin-3-yl]-1,3,4-oxadiazol-2-ylthio}acetamide] | 36.32 ± 0.16 |  |  | 
 | CCc1ccc(NC(=O)CSc2nnc(C3CCCN(S(=O)(=O)c4ccccc4)C3)o2)cc1 (stereo not shown) [7l, N-(4-Ethylphenyl)-2-{5-[1-(phenylsulfonyl)piperidin-3-yl]-1,3,4-oxadiazol-2-ylthio}acetamide] | 93.71 ± 0.28 | 274.6 ± 0.13 | least active; also recorded: BChE inhibitors | 
 | CCOc1ccc(NC(=O)CSc2nnc(C3CCCN(S(=O)(=O)c4ccccc4)C3)o2)cc1 (stereo not shown) [7m, N-(4-Ethoxyphenyl)-2-{5-[1-(phenylsulfonyl)piperidin-3-yl]-1,3,4-oxadiazol-2-ylthio}acetamide] | 72.41 ± 0.17 | 328.1 ± 0.18 | least active; also recorded: BChE inhibitors | 
